Reference: patent US12122761B2, “2-azaspiro[3.4]octane derivatives as M4 agonists” (NOVARTIS AG, priority 2019, dated 2024)

Molecular target: T1, Cloned human M1 receptor (CHRM1) stably expressed in HEK293 cells (Homo sapiens, UniProt P11229)
T1 construct: expressed in transfected cells; host or cells: HEK293
T1 sequence (P11229 1-460): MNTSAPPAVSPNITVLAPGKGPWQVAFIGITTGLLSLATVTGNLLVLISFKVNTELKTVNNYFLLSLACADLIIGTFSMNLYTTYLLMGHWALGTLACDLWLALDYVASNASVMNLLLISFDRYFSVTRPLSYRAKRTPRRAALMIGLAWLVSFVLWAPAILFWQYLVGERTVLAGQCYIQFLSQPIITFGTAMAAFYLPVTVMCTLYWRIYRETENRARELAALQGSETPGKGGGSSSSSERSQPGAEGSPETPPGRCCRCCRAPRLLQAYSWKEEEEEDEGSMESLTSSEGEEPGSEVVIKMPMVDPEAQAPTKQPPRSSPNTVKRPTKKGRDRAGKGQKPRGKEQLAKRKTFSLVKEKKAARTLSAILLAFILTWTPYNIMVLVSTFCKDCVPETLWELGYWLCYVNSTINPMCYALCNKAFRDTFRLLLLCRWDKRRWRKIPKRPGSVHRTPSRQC
Experiment: CHRM1 Ca++ Flux Assay (agonist mode, FDSS 7000EX)
Assay type: cell-based
Settings: for Emax: HEK293, Percent Activity, read-out: M1 FDSS PA; for EC50: geometric mean if tested more than once
Outline: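 Compounds tested as agonists at 11 concentrations in triplicate, with calcium traces captured over 3 minutes. Cells were HEK293 with stable human CHRM1 expression, plated overnight at 25K/well and loaded with calcium dye. Responses normalized to carbachol EC100 and fitted by four-parameter nonlinear regression.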

SMILES | Emax | EC50
COc1ccccc1C1CCN([C@@H]2CCC3(C2)CN(c2ncon2)C3)CC1 [Example 4A, (R)-3-(6-(4-(2-methoxyphenyl)piperidin-1-yl)-2-azaspiro[3.4]octan-2-yl)-1,2,4-oxadiazole] | 83% | 15 nM
COc1ccccc1C1CCN([C@@H]2CCC3(C2)CN(c2cncnc2)C3)CC1 [Example 5A, (R)-6-(4-(2-methoxyphenyl)piperidin-1-yl)-2-(pyrimidin-5-yl)-2-azaspiro[3.4]octane] | 64% | 105 nM
CC(C)(O)COc1ccccc1C1CCN([C@@H]2CCC3(C2)CN(c2cncnc2)C3)CC1 [Example 5B, (R)-2-methyl-1-(2-(1-(2-(pyrimidin-5-yl)-2-azaspiro[3.4]octan-6-yl)piperidin-4-yl)phenoxy)propan-2-ol] | 35% | 191 nM
Cc1ncncc1N1CC2(CC[C@@H](N3CCC(c4ccccc4OCC(C)(C)O)CC3)C2)C1 [Example 5C, (R)-2-methyl-1-(2-(1-(2-(4-methylpyrimidin-5-yl)-2-azaspiro[3.4]octan-6-yl)piperidin-4-yl)phenoxy)propan-2-ol] | 69% | 420 nM
COc1ccccc1C1CCN([C@@H]2CCC3(C2)CN(c2ccc(C)nc2)C3)CC1 [Example 5D, (R)-6-(4-(2-methoxyphenyl)piperidin-1-yl)-2-(6-methylpyridin-3-yl)-2-azaspiro[3.4]octane] | 0% | > 25000 nM
COc1ccccc1C1CCN([C@@H]2CCC3(C2)CN(c2cnc(C)nc2)C3)CC1 [Example 5E, (R)-6-(4-(2-methoxyphenyl)piperidin-1-yl)-2-(2-methylpyrimidin-5-yl)-2-azaspiro[3.4]octane] | 0% | > 25000 nM
COc1ccccc1C1CCN([C@@H]2CCC3(C2)CN(c2cncc(F)c2)C3)CC1 [Example 5F, (R)-2-(5-fluoropyridin-3-yl)-6-(4-(2-methoxyphenyl)piperidin-1-yl)-2-azaspiro[3.4]octane] | 7% | 3760 nM
COc1ccccc1C1CCN([C@@H]2CCC3(C2)CN(c2cncc(C)n2)C3)CC1 [Example 5G, (R)-6-(4-(2-methoxyphenyl)piperidin-1-yl)-2-(6-methylpyrazin-2-yl)-2-azaspiro[3.4]octane] | 0% | > 25000 nM
COc1ccccc1C1CCN([C@@H]2CCC3(C2)CN(c2cnccn2)C3)CC1 [Example 5H, (R)-6-(4-(2-methoxyphenyl)piperidin-1-yl)-2-(pyrazin-2-yl)-2-azaspiro[3.4]octane] | 50% | 48 nM
COc1ccccc1C1CCN([C@@H]2CCC3(C2)CN(c2nccnc2C(F)(F)F)C3)CC1 [Example 5I, (R)-6-(4-(2-methoxyphenyl)piperidin-1-yl)-2-(3-(trifluoromethyl)pyrazin-2-yl)-2-azaspiro[3.4]octane] | 55% | 272 nM
COc1ccccc1C1CCN([C@@H]2CCC3(C2)CN(c2nccnc2C)C3)CC1 [Example 5J, (R)-6-(4-(2-methoxyphenyl)piperidin-1-yl)-2-(3-methylpyrazin-2-yl)-2-azaspiro[3.4]octane] | 60% | 100 nM
COc1ccccc1C1CCN([C@@H]2CCC3(C2)CN(c2cccnc2)C3)CC1 [Example 5K, (R)-6-(4-(2-methoxyphenyl)piperidin-1-yl)-2-(pyridin-3-yl)-2-azaspiro[3.4]octane] | 54% | 284 nM
Cc1ccc(N2CC3(CC[C@@H](N4CCC(c5ccccc5O[C@@H]5CCOC5)CC4)C3)C2)cn1 [Example 5L, (R)-2-(6-methylpyridin-3-yl)-6-(4-(2-(((R)-tetrahydrofuran-3-yl)oxy)phenyl)piperidin-1-yl)-2-azaspiro[3.4]octane] | 0% | > 25000 nM
COc1ccccc1C1CCN([C@@H]2CCC3(C2)CN(c2ncnc(C)n2)C3)CC1 [Example 5M, (R)-6-(4-(2-methoxyphenyl)piperidin-1-yl)-2-(4-methyl-1,3,5-triazin-2-yl)-2-azaspiro[3.4]octane] | 0% | > 25000 nM
COc1ccccc1C1CCN([C@@H]2CCC3(C2)CN(c2ccc(Cl)nn2)C3)CC1 [Example 5N, (R)-2-(6-chloropyridazin-3-yl)-6-(4-(2-methoxyphenyl)piperidin-1-yl)-2-azaspiro[3.4]octane] | 0% | > 25000 nM
COc1ccccc1C1CCN([C@@H]2CCC3(C2)CN(c2cccnn2)C3)CC1 [Example 5O, (R)-6-(4-(2-methoxyphenyl)piperidin-1-yl)-2-(pyridazin-3-yl)-2-azaspiro[3.4]octane] | 27% | 1340 nM
COc1ccc(Cl)cc1C1CCN([C@@H]2CCC3(C2)CN(c2ccnnc2)C3)CC1 [Example 5P, (R)-6-(4-(5-chloro-2-methoxyphenyl)piperidin-1-yl)-2-(pyridazin-4-yl)-2-azaspiro[3.4]octane] | 60% | 196 nM
c1ccc(C2CCN([C@@H]3CCC4(C3)CN(c3ncncn3)C4)CC2)c(OCC2CCOCC2)c1 [Example 5Q, (R)-6-(4-(2-((tetrahydro-2H-pyran-4-yl)methoxy)phenyl)piperidin-1-yl)-2-(1,3,5-triazin-2-yl)-2-azaspiro[3.4]octane] | 0% | > 25000 nM
COc1ccccc1C1CCN([C@@H]2CCC3(C2)CN(c2cc(Cl)nnc2Cl)C3)CC1 [Example 5R, (R)-2-(3,6-dichloropyridazin-4-yl)-6-(4-(2-methoxyphenyl)piperidin-1-yl)-2-azaspiro[3.4]octane] | 41% | 2030 nM
COc1ccccc1C1CCN([C@@H]2CCC3(C2)CN(c2ccnnc2)C3)CC1 [Example 5S, (R)-6-(4-(2-methoxyphenyl)piperidin-1-yl)-2-(pyridazin-4-yl)-2-azaspiro[3.4]octane] | 45% | 1040 nM
